Test system: swine hindlimb vessel
Test: Staining of lymph vessels with HA-NIR molecule
Type: in vivo
Protocol: Four, two-month old, 60 lb white Yorkshire swine (K Bar Livestock, HC 69 Box 270 Sabinal, Tex.) were imaged using protocols which were approved by the Baylor College of Medicine Institutional Animal Care and Use Committee. The animals were anesthetized, intubated, and maintained with isoflurane. Animal body temperature was maintained at 100° F. using a warming blanket. At the end of the procedure, the animals were euthanized and lymph nodes resected with fluorescence guidance.
Continuous-wave optical imaging of the fluorescent NIR dyes was performed with a custom built intensified charged-coupled device (CCD). Reynolds J S, Troy T L, and Sevick-Muraca E M. Multipixel techniques for frequency-domain photon migration imaging. Biotechnol Prog 13: 669-680, 1997, incorporated herein by reference in its entirety for all purposes. Briefly, the device had three principal components: 1) a NIR-sensitive image intensifier (model FS9910C ITT Night Vision, Roanoke, Va.); 2) a 16-bit dynamic range, frame transfer CCD camera (Roper Scientific, Tucson, Ariz.); and 3) a 785-nm laser diode (Thorlabs) used to provide the excitation light for activating ICG and hyaluronan-NIR. The 785-nm laser diode beam was expanded by using a planoconvex lens and a holographic optical diffuser such that approximately 0.08 m^2 of the swine's body was illuminated. A 785-nm holographic notch band rejection filter (model HNPF-785.0-2.0, Kaiser Optical Systems, Ann Arbor, Mich.) and an 830-nm image quality bandpass filter (model 830.0-2.0, Andover, Salem, N.H.) were placed before the 28-mm Nikkor lens (Nikon) to selectively reject the excitation light and pass the emitted 830-nm wavelength. A total of 400 to 1,000 images with 512×512 resolution and 200 ms exposure time were acquired enabling near-real time visualization of ICG trafficking. For image registration, white light images were acquired by replacing the holographic and bandpass filters with a neutral density filter and illuminating the surface of the swine with a low-power lamp. […]

CC1(C)C(/C=C/C=C/C=C/C=C2\N(CCCCS(=O)(=O)O)c3ccc4ccccc4c3C2(C)C)=[N+](CCCCS(=O)(=O)[O-])c2ccc3ccccc3c21 [ICG, indocyanine green]
normalized fluorescent intensity in ROI as a function of time (image acquisition 6 min, swine leg lymph vessel): fluctuation and net reduction of intensity
propulsion of packets (swine hindlimb vessel, 64 μM HA-NIR, 32 μM ICG): observed
fluorescence intensity along the length of the vessel and with time (three-dimensional plots, swine lymph vessels): varies with time and length along the vessel

Reference: US8609067B2, “Method of measuring propulsion in lymphatic structures” (Board of Regents of the University of Texas System, priority 2006, dated 2013)
